Assay results as given in patent US20070128217A1 (priority 2003, published 2007).

Assays:
[1] = system: antibodies in sera from SARS patients (sera 1a, 1b, 2, 6, 37, 62, London, SARS-yellow, SARS-green); type: binding, human; set-up: Binding of serum 6 to linear peptides of protein X1 of SARS-CoV Urbani / Binding of serum 37 to linear peptides of protein X1 of SARS-CoV Urbani / Binding of serum 6 to looped/cyclic peptide (PEPSCAN-ELISA) / Binding of serum 37 to looped/cyclic peptide (PEPSCAN-ELISA) / Binding of serum 37 to looped/cyclic peptides of protein X1 of SARS-CoV Urbani / Binding of serum 6 to linear peptides of protein X2 / Binding of serum 37 to linear peptides of protein X2 / Binding of serum 37 to looped/cyclic peptides of protein X2 of SARS-CoV Urbani / Binding of serum 6 to linear peptides of protein M of SARS-CoV Urbani / Binding of serum 37 to linear peptides of protein M of SARS-CoV Urbani / Binding of serum 6 to looped/cyclic peptides of protein M of SARS-CoV Urbani / Binding of serum 37 to looped/cyclic peptides of protein M of SARS-CoV Urbani / Binding of serum 6 to linear peptides of protein X3 of SARS-CoV Urbani / Binding of serum 37 to linear peptides of protein X3 of SARS-CoV Urbani / Binding of serum 37 to looped/cyclic peptides of protein X3 of SARS-CoV Urbani / Binding of serum 6 to linear peptides of protein X4 of SARS-CoV Urbani / Binding of serum 37 to linear peptides of protein X4 of SARS-CoV Urbani / Binding of serum 37 to looped/cyclic peptides of protein X4 of SARS-CoV Urbani / Binding of serum 6 to linear peptides of protein X5 of SARS-CoV Urbani / Binding of serum 37 to linear peptides of protein X5 of SARS-CoV Urbani / Binding of serum 37 to looped/cyclic peptides of protein X5 of SARS-CoV Urbani / Binding of serum 6 to linear peptides of protein N of SARS-CoV Urbani / Binding of serum 37 to linear peptides of protein N of SARS-CoV Urbani / Binding of serum 6 to linear peptide (PEPSCAN-ELISA) / Binding of serum 1a to looped/cyclic peptides of protein N of SARS-CoV Urbani / Binding of serum 1b to looped/cyclic peptides of protein N of SARS-CoV Urbani / Binding of serum 2 to looped/cyclic peptides of protein N of SARS-CoV Urbani / Binding of serum 6 to looped/cyclic peptides of protein N of SARS-CoV Urbani / Binding of serum 37 to looped/cyclic peptides of protein N of SARS-CoV Urbani / Binding of serum 62 to looped/cyclic peptides of protein N of SARS-CoV Urbani / Binding of serum London to looped/cyclic peptides of protein N of SARS-CoV Urbani / Binding of serum SARS-green to looped/cyclic peptides of protein N of SARS-CoV Urbani: unit not given here
[2] = system: rabbit serum obtained by immunizing a rabbit with the SARS-CoV strain Frankfurt 1; type: binding; set-up: Binding of a rabbit serum to linear peptides / Binding of a rabbit serum to looped peptides / Rabbit serum linear peptides / Rabbit serum looped peptides / Binding of a rabbit serum to linear peptides of protein N of SARS-CoV Urbani (Rabbit serum linear peptides) / Binding of a rabbit serum to looped/cyclic peptides of protein N of SARS-CoV Urbani (Rabbit serum looped peptides): unit not given here
[3] = system: recombinant human anti-SARS-CoV antibody 03-018; type: binding; set-up: Binding of antibody 03-018 to linear peptides of the N protein of SARS-CoV Urbani / Binding of antibody 03-018 to looped/cyclic peptides of the N protein of SARS-CoV Urbani: unit not given here
[4] = system: control sera (pooled serum of ten healthy LUMC hospital workers; commercial negative donor pooled serum from the Dutch bloodbank); type: binding, human; set-up: Binding of Control serum LUMC to linear peptides / Binding of Control serum Blood-bank to linear peptides / Binding of Control serum LUMC to looped peptides / Binding of Control Serum Blood-Bank to Looped peptides / Binding of Control serum LUMC to linear peptides of the protein M of SARS-CoV Urbani / Binding of Control serum Blood-bank to linear peptides of the protein M of SARS-CoV Urbani / Binding of Control serum LUMC to looped peptides of the protein M of SARS-CoV Urbani / Binding of Control Serum Blood-Bank to Looped peptides of the protein M of SARS-CoV Urbani: unit not given here

Row | Sequence | Binding of serum 1a to linear peptides of protein N of SARS-CoV Urbani [1] | Binding of serum 1a to looped/cyclic peptides of protein N of SARS-CoV Urbani [1] | Binding of serum 1b to linear peptides of protein N of SARS-CoV Urbani [1] | Binding of serum 1b to looped/cyclic peptides of protein N of SARS-CoV Urbani [1] | Binding of serum 2 to linear peptides of protein N of SARS-CoV Urbani [1] | Binding of serum 2 to looped/cyclic peptides of protein N of SARS-CoV Urbani [1] | Binding of serum 6 to linear peptides of protein N of SARS-CoV Urbani [1] | Binding of serum 6 to looped/cyclic peptides of protein N of SARS-CoV Urbani [1] | Binding of serum 37 to linear peptides of protein N of SARS-CoV Urbani [1] | Binding of serum 37 to looped/cyclic peptides of protein N of SARS-CoV Urbani [1] | Binding of serum 62 to linear peptides of protein N of SARS-CoV Urbani [1] | Binding of serum 62 to looped/cyclic peptides of protein N of SARS-CoV Urbani [1] | Binding of serum London to linear peptides of protein N of SARS-CoV Urbani [1] | Binding of serum London to looped/cyclic peptides of protein N of SARS-CoV Urbani [1] | Binding of serum SARS-green to looped/cyclic peptides of protein N of SARS-CoV Urbani [1] | Binding of serum SARS-yellow to looped/cyclic peptides of protein N of SARS-CoV Urbani [1] | Binding of a rabbit serum to linear peptides of protein N of SARS-CoV Urbani (Rabbit serum linear peptides) [2] | Binding of a rabbit serum to looped/cyclic peptides of protein N of SARS-CoV Urbani (Rabbit serum looped peptides) [2] | Binding of antibody 03-018 to linear peptides of the N protein of SARS-CoV Urbani [3] | Binding of antibody 03-018 to looped/cyclic peptides of the N protein of SARS-CoV Urbani [3] | other results
1 | TNSGPDDQIGYYRRA | 0.3 | 0.5 | 0.2 | 0.4 | 0.2 | 0.5 | 0.2 | 0.3 | 0.7 | 0.9 | 0.7 | 0.8 | 0.5 | 0.6 | 0.6 | 0.7 | 0.2 | 0.5 | 0.1 | 0.2 | Binding of serum SARS-green to linear peptides of protein N of SARS-CoV Urbani [1]: 0.4; Binding of serum SARS-yellow to linear peptides of protein N of SARS-CoV Urbani [1]: 0.6; Binding of Control Serum Blood-Bank to Looped peptides [4]: 0.7; Binding of Control serum Blood-bank to linear peptides [4]: 1.2; Binding of Control serum LUMC to linear peptides [4]: 0.9; Binding of Control serum LUMC to looped peptides [4]: 0.9
2 | MKELSPRWYFYYLGT | 0.2 | 0.4 | 0.1 | 0.2 | 0.1 | 0.4 | 0.1 | 0.2 | 0.5 | 0.7 | 0.4 | 0.6 | 0.4 | 0.4 | 0.4 | 0.4 | 0.1 | 0.4 | 0.1 | 0.2 | Binding of serum SARS-green to linear peptides of protein N of SARS-CoV Urbani [1]: 0.2; Binding of serum SARS-yellow to linear peptides of protein N of SARS-CoV Urbani [1]: 0.6; Binding of Control Serum Blood-Bank to Looped peptides [4]: 0.7; Binding of Control serum Blood-bank to linear peptides [4]: 0.7; Binding of Control serum LUMC to linear peptides [4]: 0.6; Binding of Control serum LUMC to looped peptides [4]: 0.6
3 | FTALTQHGKEELRFP | 0.3 | 0.2 | 0.2 | 0.1 | 0.3 | 0.3 | 0.2 | 0.1 | 0.8 | 0.4 | 0.7 | 0.3 | 0.5 | 0.2 | 0.0 | 0.1 | 0.2 | 0.1 | 0.1 | 0.2 | Binding of serum SARS-green to linear peptides of protein N of SARS-CoV Urbani [1]: 0.7; Binding of serum SARS-yellow to linear peptides of protein N of SARS-CoV Urbani [1]: 0.6; Binding of Control Serum Blood-Bank to Looped peptides [4]: 0.5; Binding of Control serum Blood-bank to linear peptides [4]: 0.7; Binding of Control serum LUMC to linear peptides [4]: 0.7; Binding of Control serum LUMC to looped peptides [4]: 0.3
4 | DNVILLNKHIDAYKT | 0.2 | 0.4 | 0.1 | 0.3 | 0.2 | 0.4 | 0.1 | 0.2 | 0.6 | 0.7 | 0.6 | 0.7 | 0.5 | 0.5 | 0.3 | 0.8 | 0.1 | 0.6 | 0.1 | 0.2 | Binding of serum SARS-green to linear peptides of protein N of SARS-CoV Urbani [1]: 0.2; Binding of serum SARS-yellow to linear peptides of protein N of SARS-CoV Urbani [1]: 0.6; Control Serum Blood-Bank Looped peptides [4]: 0.7; Control serum Blood-bank linear peptides [4]: 0.5; Control serum LUMC linear peptides [4]: 0.6; Control serum LUMC looped peptides [4]: 0.7
5 | TKKSAAEASKKPRQK | – | 0.2 | – | 0.1 | – | 0.2 | – | 0.1 | – | 0.4 | – | 0.3 | – | 0.3 | 0.0 | 0.2 | 0.1 | 0.2 | 0.1 | 0.2 | Recognition of the peptide by sera of SARS-CoV infected individuals, and form (linear, looped/cyclic) in which it is recognized [1]: recognized in linear form; Binding of Control Serum Blood-Bank to Looped peptides [4]: 0.4; Binding of Control serum Blood-bank to linear peptides [4]: 0.8; Binding of Control serum LUMC to linear peptides [4]: 0.9; Binding of Control serum LUMC to looped peptides [4]: 0.4
